Reference: patent publication US8829009B2, “Substituted 2-amino-3-(sulfonyl)pyrazolo[1,5-a]pyrimidines - serotonin 5-HT6 receptor antagonists, method for use thereof” (priority 2008, dated 2014)

Columns and labels:
5-HT6 receptor [1] = biological target: T1, 5-HT6 receptor (Homo sapiens (Human), UniProt P50406); test: Functional assay: inhibition of serotonin-induced intracellular cAMP in HEK 293 cells expressing 5-HT6 receptor (LANCE cAMP); type: cell-based; details: for inhibition at 10 µM: HEK293, read-out: % inhibition of 5-HT6 receptors, 10 μM solutions of compounds; for IC50: HEK 293 cells expressing 5-HT6 receptor, read-out: IC50 inhibition of serotonin 5-HT6 receptors in the setting of functional assay (serotonin-stimulated intracellular cAMP production)
Method: Determination of antagonistic activity of compounds of general formula 1 towards 5-HT6 receptors. Compounds of general formula 1 were tested for their ability to prevent 5-HT6 receptor activation by serotonin. HEK 293 cells (cells of human embryo's kidney) with artificially expressed 5-HT6 receptor, activation of which by serotonin leads to increasing the concentration of intracellular cAMP were used. The content of intracellular cAMP was determined using reagent kit LANCE cAMP (PerkinElmer) according to the method described by the manufacturer of the kit [http://las.perkinelmer.com/content/Manuals/MAN_LANCEcAMP384KitUser.pdf].
Effectiveness of compounds was estimated by their ability to reduce the content of intracellular cAMP induced by serotonin.

5-HT6 receptor [2] = biological target: T1, 5-HT6 receptor; test: Competitive radioligand binding ([3H] Lysergic acid diethylamide) to membranes of HeLa cells expressing recombinant human 5-HT6 receptors
Method: Activity determination of serotonin 5-HT6 receptor antagonists of the general formula 1 in the setting of competitive binding to serotonin 5-HT6 receptors.
Screening of the disclosed compounds for their potential ability to interact with serotonin 5-HT6 receptors was carried out by method of radioligand binding. For this purpose membrane species were prepared from expressing recombinant human 5-HT6 receptors HeLa cells by means of their homogenization in glass homogenizer with subsequent separation of plasmatic membranes from cell nucli, mitochondria's and cell wreckages by differential centrifugation. Determination of tested compounds binding with 5-HT6 receptors was carried out according to the method described in [Monsma F J Jr, Shen Y, Ward R P, Hamblin M W and Sibley D R, Cloning and expression of a novel serotonin receptor with high affinity for tricyclic psychotropic drugs. Mol Pharmacol. 43:320-327, 1993]. […] After incubation the samples were filtered in vacuo on glass-microfiber filters G/F (Millipor, USA), filters were washed three times with cold solution of medium and radioactivity was measured by scintillation counter MicroBeta 340 (PerkinElmer, USA). […] Binding of tested compounds to the receptor was determined by their ability to displace the radioligand and expressed in percent of displacement. The percent of displacement was calculated according to the following equation:
[formula] wherein: TA—was overall radioactivity in the presence of radioligand only, CA—was radioactivity in the presence of radioligand and tested compound and NA—was radioactivity in the presence of radioligand and Serotonin (5 μM).

[3] = tested on: food consumption (appetite) in rats; test: Appetite control test in food-deprived rats; type: in vivo, rat; details: Vistar rats, 16 h food deprivation, 10 mg/kg intraperitoneally 60 min before test (FIG. 2 legend: 1 mg/kg)
Method: Appetite control test. Male rats of Vistar line weighing 230-360 g were housed in standard home cages with water and food available with the exception of short periods of food deprivation (16 hs) just before the Appetite test. The Appetite test was carried out in individual cages with overhead cover made of wire in the niches of which a portion of food granules was inserted. Mass of the granules was examined every 30 minutes for 3 h. On the basis of these measurements food consumption was estimated and stated in grams of food per kilogram of body mass. Placebo and the compound 1.1(1) (dose 10 mg/kg) were injected intraperitoneally 60 minutes before the test. Each experimental group of animals consisted of 10 rats. Compound was dissolved in sterilized water. The injection volume was 10 ml/kg. Intact animals which were not undergone food deprivation, and animals after food deprivation, but injected with sterilized water, were used as control. […]

[4] = tested on: prepulse inhibition of startle in mice; test: Prepulse inhibition of the startle response in mice (Apomorphine-induced disturbance); type: in vivo, mouse; details: SHK mice, 1 mg/kg, 60 min before test
Method: Antipsychotic activity of compounds of the general formula 1 in “Prepulse inhibition of the startle response in mice” test. Mice of SHK line weighing about 24-30 g were used in the test. Experiments were carried out during light period of animal's diurnal. Apomorphine hydrochloride and Haloperidol were received from Sigma Chemicals Company, (USA). Apomorphine hydrochloride was dissolved in 0.1% solution of ascorbic acid prepared with sterilized water; it was administered subcutaneously 15 minutes before the test. Haloperidol was dissolved in sterilized water using emulsifier Twin 80, it was administered intraperitoneally 60 minutes before the test. The compound 1.1(1) was dissolved in sterilized water, it was introduced subcutaneously 60 minutes before the test. Injection volume was 10 ml/kg. Solution of ascorbic acid prepared with sterilized water and Twin 80 were injected to control group of animals.
The test instrument consisted of a chamber made of transparent plexiglass (manufacturer—Columbia Instruments Company, USA) and placed on a platform the latter was lodged inside the sound insulating chamber. High frequency sound column transmitting acoustic stimulus was located 2 cm away from the platform. […] Inhibition of the startle in reply to prepulse-plus-pulse stimulus was calculated in percentage towards amplitude of startle in response to isolated pulse stimulus. […]

T1 sequence (P50406 whole entry): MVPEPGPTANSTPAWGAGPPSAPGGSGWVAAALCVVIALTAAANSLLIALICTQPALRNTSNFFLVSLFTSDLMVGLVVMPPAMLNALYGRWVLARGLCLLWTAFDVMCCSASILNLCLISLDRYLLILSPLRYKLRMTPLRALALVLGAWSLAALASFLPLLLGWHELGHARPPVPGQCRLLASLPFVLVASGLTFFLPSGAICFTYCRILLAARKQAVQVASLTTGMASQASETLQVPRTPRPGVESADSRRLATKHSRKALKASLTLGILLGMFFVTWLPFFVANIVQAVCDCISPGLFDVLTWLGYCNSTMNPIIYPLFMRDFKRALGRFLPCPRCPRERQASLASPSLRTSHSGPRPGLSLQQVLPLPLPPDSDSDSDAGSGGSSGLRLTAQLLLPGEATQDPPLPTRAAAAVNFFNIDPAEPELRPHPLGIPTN

Row | Compound | inhibition at 10 µM (5-HT6 receptor [1]) [%] | also measured
1 | Cc1cc(C)n2nc(NCCCN(C)C)c(S(=O)(=O)c3ccccc3)c2n1 [1(10)] | 94 | –
2 | CNc1nn2c(C)cc(-c3ccccc3)nc2c1S(=O)(=O)c1ccccc1 [1(3)] | 91 | –
3 | Cc1cc(C)n2nc(N3CCN(C)CC3)c(S(=O)(=O)c3ccccc3)c2n1 [1(13)] | 80 | –
4 | Cc1cc(C)n2nc(N3CCNCC3)c(S(=O)(=O)c3ccccc3)c2n1 [1(12)] | 76 | –
5 | CCNc1nn2c(C)cc(C)nc2c1S(=O)(=O)c1ccccc1 [1(7)] | 104 | –
6 | Cc1ccc(S(=O)(=O)c2c(Nc3ccccc3)nn3c(C)c(C)c(C)nc23)cc1 [1(1)] | 77 | –
7 | O=C(CCCN1CCC(O)(c2ccc(Cl)cc2)CC1)c1ccc(F)cc1 [Haloperidol, reference compound] | – | effect on disturbance of prepulse inhibition of startle caused by Apomorphine [4]: prevented disturbance of prepulse inhibition of startle caused by Apomorphine
8 | Cc1cc(C)n2nc(N(C)C)c(S(=O)(=O)c3ccccc3)c2n1 [1.1(2), 2-dimethylamino-5,7-dimethyl-3-(phenylsulfonyl)pyrazolo[1,5-a]pyrimidine] | 86 | IC50 (5-HT6 receptor [1]): 1180 nM
9 | Cc1cc(C)n2nc(N(C)C)c(S(=O)(=O)c3ccc(F)cc3)c2n1 [1.1(4), 2-dimethylamino-5,7-dimethyl-3-(4-fluorophenylsulfonyl)pyrazolo[1,5-a]pyrimidine] | 95 | –
10 | Cc1cc(C)n2nc(NCCN(C)C)c(S(=O)(=O)c3ccccc3)c2n1 [1(8)] | 91 | –
11 | CNc1nn2c(-c3ccccc3)cc(C)nc2c1S(=O)(=O)c1ccccc1 [1(2)] | 90 | –
12 | Cc1cc(C)n2nc(N3CCN(C(=O)OC(C)(C)C)CC3)c(S(=O)(=O)c3ccccc3)c2n1 [1(11)] | 63 | –
13 | Cc1cc(C)n2nc(N(C)CCN(C)C)c(S(=O)(=O)c3ccccc3)c2n1 [1(9)] | 88 | –
14 | Cc1ccc(Nc2nn3c(C)cc(C)nc3c2S(=O)(=O)c2ccc(C)cc2)cc1 [1(14)] | 70 | –

Further lines, with some results ahead:

Row | inhibition at 10 µM (5-HT6 receptor [1]) [%] | Compound | also measured
15 | 97 | CNc1nn2c(C)cc(C)nc2c1S(=O)(=O)c1ccc(F)c(Cl)c1 [1.1(9)] | IC50 (5-HT6 receptor [1]): 4 nM
16 | 77 | CNc1nn2c(C)cc(C)nc2c1S(=O)(=O)c1ccccc1 [1.1(1), 2-methylamino-5,7-dimethyl-3-(phenylsulfonyl)pyrazolo[1,5-a]pyrimidine] | IC50 (5-HT6 receptor [1]): 5 nM; IC50 (5-HT6 receptor [2]; 1.5 nM [3H] Lysergic acid diethylamide, 120 min at 37° C., read-out: IC50 in the setting of competitive binding): 0.511 nM; Ki (5-HT6 receptor [2]; 1.5 nM [3H] Lysergic acid diethylamide, 120 min at 37° C., read-out: Ki in the setting of competitive binding): 0.237 nM; activity of serotonin 5-HT6 receptor antagonist (5-HT6 receptor [2]; quantity not specified, differs from Table 4): 4.61 nM; effect on appetite (food consumption) after food deprivation [3]: capable to prevent appetite rising in rats; effect on disturbance of prepulse inhibition of startle caused by Apomorphine [4]: prevented disturbance of prepulse inhibition of startle caused by Apomorphine
17 | 98 | CNc1nn2c(C)cc(C)nc2c1S(=O)(=O)c1cccs1 [1(6)] | –
18 | 96 | Cc1cc(C)n2nc(N(C)C)c(S(=O)(=O)c3cccc(Cl)c3)c2n1 [1.1(8), 2-dimethylamino-5,7-dimethyl-3-(3-chlorophenylsulfonyl)pyrazolo[1,5-a]pyrimidine] | –
19 | 95 | CNc1nn2c(C)cc(C)nc2c1S(=O)(=O)c1cccnc1 [1(5)] | –
20 | 99 | CNc1nn2c(C)cc(C)nc2c1S(=O)(=O)c1ccc(F)cc1 [1.1(3), 2-methylamino-5,7-dimethyl-3-(4-fluorophenylsulfonyl)pyrazolo[1,5-a]pyrimidine] | IC50 (5-HT6 receptor [1]): 6 nM
21 | 97 | CNc1nn2c(C)cc(C)nc2c1S(=O)(=O)c1ccncc1 [1(4)] | –
22 | 97 | Cc1cc(C)n2nc(N(C)C)c(S(=O)(=O)c3cccc(F)c3)c2n1 [1.1(6), 2-dimethylamino-5,7-dimethyl-3-(3-fluorophenylsulfonyl)pyrazolo[1,5-a]pyrimidine] | –
23 | 100 | CNc1nn2c(C)cc(C)nc2c1S(=O)(=O)c1cccc(Cl)c1 [1.1(7), 2-methylamino-5,7-dimethyl-3-(3-chlorophenylsulfonyl)pyrazolo[1,5-a]pyrimidine] | IC50 (5-HT6 receptor [1]): 2 nM
24 | 97 | CNc1nn2c(C)cc(C)nc2c1S(=O)(=O)c1cccc(F)c1 [1.1(5), 2-methylamino-5,7-dimethyl-3-(3-fluorophenylsulfonyl)pyrazolo[1,5-a]pyrimidine] | IC50 (5-HT6 receptor [1]): 5 nM
